A word on the inhibition: it is the change of the read-out against control, counted positive when it falls.

The source of these data is patent publication US20070041904A1, “Peptides whose uptake by cells is controllable” (priority 2003, published 2007).

This test deals with MDA-MB-231 cells. Put plainly: ACPP uptake in 3D Matrigel culture, MDA-MB-231. In kind it is cell-based. To be noted: Homo sapiens, 0.1 mM GM6001, read-out: inhibition of uptake of PLGLAG-containing ACPP. The protocol:
FIG. 56: MDA-MB-231 cells in 3-D culture make enough MMPs to take up ACPP over 24 hr. The left two columns show results with e9-XPLGLAG-r9-k(Cy5) without or with 0.1 mM GM6001, a general inhibitor of MMPs. GM6001 also reduces invasiveness of the cells, explaining why the cell cluster is smaller. The right two columns show e9-Xplglag-r9-k(Cy5) as a nonhydrolyzable negative control and r9-k(Cy5) as a positive control. […] Note that these ACPPs have no macromolecular carrier, because there is no need to hinder kidney excretion and because the macromolecular carriers seem to hinder diffusion through the Matrigel and into these organoids, which lack active circulation.
3D tissue cultures in matrigel (FIG. 53) may also be used in the practice of this invention. Such 3D cultures are more realistic models than isolated tumor cells, and offer higher-resolution analysis than is possible in live animals. […]
For these studies, tricine gels, fluorescence imaging, and flow cytometry protocols were used to quantify cleavage and uptake of ACPPs into the 3D cultures. Fluorescence imaging allowed detection of total fluorescence of surface and intracellular peptide, whereas flow cytometry measured fluorescence remaining inside cells after clusters have been digested into single cells and stripped of surface binding via trypsinization. […]

Each structure is given as a SMILES string.

With `CNC(=O)[C@H](Cc1c[nH]c2ccccc12)NC(=O)[C@@H](CC(=O)NO)CC(C)C` [GM6001], the inhibition at 100 µM was around 50%.
